Data: patent publication US20210040062A1, “AZOLE-SUBSTITUTED PYRIDINE COMPOUND” (TAISHO PHARMACEUTICAL CO., LTD., priority 2016, published 2021)

Tests used:
human CYP4F2 = molecular target: T1, human CYP4F2 (Homo sapiens, UniProt P78329); test: CYP4F2 inhibition test (Test Example 1); assay type: biochemical; settings: Escherichia coli membrane fraction expressing human CYP4F2, 2.5 μM luciferine derivative, room temperature 60 minutes, luminescence
T1 construct: host or cells: Escherichia coli (membrane fraction)
T1 sequence (P78329 5-520): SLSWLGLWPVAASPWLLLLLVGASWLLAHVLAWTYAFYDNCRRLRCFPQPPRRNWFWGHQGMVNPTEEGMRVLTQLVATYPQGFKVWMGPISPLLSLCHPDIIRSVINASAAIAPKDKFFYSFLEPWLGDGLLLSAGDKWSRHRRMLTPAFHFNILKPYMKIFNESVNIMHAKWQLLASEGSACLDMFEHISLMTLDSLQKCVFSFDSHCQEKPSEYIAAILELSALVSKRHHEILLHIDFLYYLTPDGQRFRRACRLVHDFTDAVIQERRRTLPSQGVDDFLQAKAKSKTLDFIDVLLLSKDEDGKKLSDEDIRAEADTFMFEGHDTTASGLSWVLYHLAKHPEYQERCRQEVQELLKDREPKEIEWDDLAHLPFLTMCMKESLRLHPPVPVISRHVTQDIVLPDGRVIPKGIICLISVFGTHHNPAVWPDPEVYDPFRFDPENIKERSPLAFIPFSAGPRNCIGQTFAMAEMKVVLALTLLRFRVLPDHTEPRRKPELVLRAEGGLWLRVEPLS
Description: (§1) (1) Inhibition Test for Each Compound of the Present Invention Against 20-HETE Producing Enzymes (CYP4F2 and CYP4A11)
(§2) In the CYP4F2 inhibition test, the reaction solution containing each compound [final concentration of 50 mM, KPO4 (pH 7.4), 2.5 μM, luciferine derivative and 1 mM NADPH] was added to an Escherichia coli membrane fraction (100 μg/mL, protein) in which human CYP4F2 had been expressed. In the CYP4A11 inhibition test, the reaction solution containing each compound [final concentration of 100 mM, Tris-HCl (pH 7.5), 60 μM, luciferine derivative, 1.3 mM NADP^+, 3.3 mM Glucose 6-Phosphate, 3.3 mM MgCl2 and 0.4 U/mL Glucose 6-Phosphate dehydrogenase] was added to an Escherichia coli membrane fraction (100 μg/mL, protein) in which human CYP4A11 had been expressed. Following this, the membrane fraction was left to stand at room temperature for 60 minutes to perform an enzymatic reaction. After the reaction, a luciferine detection reagent was added, and the luminescence value was measured using a plate reader.
(§3) A: Luminescence value with addition of compound
(§4) B: Luminescence value without addition of compound and enzyme
(§5) C: Luminescence value without addition of compound

human CYP4A11 = molecular target: T2, human CYP4A11 (Homo sapiens, UniProt Q02928); test: CYP4A11 inhibition test (Test Example 1); assay type: biochemical; settings: Escherichia coli membrane fraction expressing human CYP4A11, 60 μM luciferine derivative, room temperature 60 minutes, luminescence
T2 construct: host or cells: Escherichia coli (membrane fraction)
T2 sequence (Q02928 5-519): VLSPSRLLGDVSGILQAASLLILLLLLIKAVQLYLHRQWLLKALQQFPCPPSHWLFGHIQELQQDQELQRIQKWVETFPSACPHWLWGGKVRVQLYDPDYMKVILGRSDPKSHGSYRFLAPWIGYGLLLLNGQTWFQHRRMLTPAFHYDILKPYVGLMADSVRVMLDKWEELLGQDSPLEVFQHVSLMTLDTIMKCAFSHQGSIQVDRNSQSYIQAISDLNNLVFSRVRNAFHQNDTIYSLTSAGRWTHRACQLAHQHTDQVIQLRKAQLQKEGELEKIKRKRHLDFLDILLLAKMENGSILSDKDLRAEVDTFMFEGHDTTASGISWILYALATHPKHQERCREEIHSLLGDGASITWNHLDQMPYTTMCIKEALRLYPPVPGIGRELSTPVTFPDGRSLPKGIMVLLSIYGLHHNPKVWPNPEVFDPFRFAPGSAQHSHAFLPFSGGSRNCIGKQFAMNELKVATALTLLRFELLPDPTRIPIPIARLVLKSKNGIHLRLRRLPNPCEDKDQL
Description: as §1, §2, §3, §4, §5

| SMILES | IC50 (human CYP4F2) [µM] | IC50 (human CYP4A11) [µM] |
| --- | --- | --- |
| NC(=O)COc1ccc(C(=O)N2CCC[C@@H](COc3ccc(-c4ccn[nH]4)nc3)C2)cc1 [Example 3-25] | 0.11 | 0.56 |
| CC(=O)N1CCC[C@H](COc2ccc(-c3ccn[nH]3)nc2)C1 [Example 1-11] | 0.18 | 0.22 |
| O=C([C@H]1CC[C@@H](O)CC1)N1CCC[C@@H](COc2ccc(-c3ccn[nH]3)nc2)C1 [Example 3-3, (4-Hydroxycyclohexyl)-((3R)-3-{[6-(1H-pyrazol-5-yl)pyridin-3-yl]oxymethyl}piperidin-1-yl)methanone] | 0.79 | 1.7 |
| c1cc(-c2ccc(OCc3ccnc(-n4cncn4)c3)cn2)[nH]n1 [Example 25-9] | 0.012 | 1.3 |
| O=C(C1CCOCC1)N1CCC(COc2ccc(-c3ccn[nH]3)nc2)CC1 [Example 2-8] | 0.29 | 5.7 |
| O=S1(=O)CCC(CCOc2ccc(-c3cn[nH]c3)nc2)CC1 [Example 43-5] | 3.4 | 0.29 |
| O=C(NCCC(=O)N1CCC[C@@H](COc2ccc(-c3ccn[nH]3)nc2)C1)C1CC1 [Example 1-37] | 0.12 | 0.16 |
| O=C(N1CCC(COc2ccc(-c3ccn[nH]3)nc2)CC1)N1CC(F)C1 [Example 7-2] | 0.029 | 1.1 |
| CN(C)C(=O)N1CCC(COc2ccc(-c3ccn[nH]3)nc2)CC1 [Example 6-1, N,N-Dimethyl-4-({[6-(1H-pyrazol-5-yl)pyridin-3-yl]oxy}methyl)piperidin-1-carboxamide] | 0.019 | 0.64 |
| O=C(N1CCC(COc2ccc(-c3ccn[nH]3)nc2)CC1)N1CCCS1(=O)=O [Example 6-5] | 0.72 | 2 |
| O=C(CCN1CCCS1(=O)=O)N1CCC[C@@H](COc2ccc(-c3ccn[nH]3)nc2)C1 [Example 3-38] | 0.38 | 1.8 |
| COC(=O)N1CCC(CCOc2cnc(-c3ccn[nH]3)c(F)c2)CC1 [Example 24-6] | 0.025 | 0.064 |
| CC(=O)N1CCC(C(=O)N2CCC[C@@H](COc3ccc(-c4ccn[nH]4)nc3)C2)CC1 [Example 3-24] | 0.49 | 2 |
| CC(=O)NCC(=O)N1CCC[C@@H](COc2ccc(-c3ccn[nH]3)nc2)C1 [Example 3-15] | 7.1 | 1.2 |
| O=C(C1CCOCC1)N1CCC[C@@H](COc2ccc(-c3ccn[nH]3)nc2)C1 [Example 3-9] | 1.3 | 2 |
| COc1ccc2ccc(COc3ccc(-c4ccn[nH]4)nc3)cc2n1 [Example 25-16] | 0.0032 | 2.2 |
| COC(=O)N1CCC(CCOc2ccc(-c3ccn[nH]3)nc2)C(C)C1 (single isomer, unassigned) [Example 1-16-1] | 0.24 | 0.053 |
| CCOC(=O)N[C@H]1C[C@H](C(=O)N2CCC[C@@H](COc3ccc(-c4ccn[nH]4)nc3)C2)C1 [Example 1-38] | 0.0062 | 0.18 |
| O=S(=O)(C1CC1)N1CCC[C@H](COc2ccc(-c3ccn[nH]3)nc2)C1 [Example 10-8] | 0.13 | 0.059 |
| CCCCNC(=O)CC(=O)N1CCC[C@@H](COc2ccc(-c3ccn[nH]3)nc2)C1 [Example 2-17] | 0.48 | 0.27 |
| O=C(Cn1ccccc1=O)N1CCC[C@@H](COc2ccc(-c3ccn[nH]3)nc2)C1 [Example 3-28] | 3.2 | 2.4 |
| O=C(CN1CCCOC1=O)N1CCC[C@@H](COc2ccc(-c3ccn[nH]3)nc2)C1 [Example 3-39] | 3.5 | 3.4 |

| SMILES | IC50 (human CYP4F2) [µM] | IC50 (human CYP4A11) [µM] |
| --- | --- | --- |
| CC(C)OC(=O)N1CCC[C@H](COc2ccc(-c3ccn[nH]3)nc2)C1 [Example 1-14] | 0.039 | 0.33 |
| COc1ccc(COc2ccc(-c3ccn[nH]3)nc2)cc1F [54-3] | 0.012 | 0.66 |
| CS(=O)(=O)c1cccc(COc2ccc(-n3ccnn3)nc2)c1 [Example 45-2] | 3.1 | 0.64 |
| CC(=O)N1CCC(COc2ccc(-n3cncn3)nc2)CC1 [Example 45-3] | 0.026 | 0.055 |
| CN(C)S(=O)(=O)c1cc(COc2ccc(-c3ccn[nH]3)nc2)ccc1Cl [Example 18-2] | 0.14 | 0.058 |
| CNC(=O)N1CCC[C@H](COc2ccc(-c3ccn[nH]3)nc2)C1 [Example 6-4] | 0.11 | 1.1 |
| CCOC(=O)NCCS(=O)(=O)N1CCC[C@@H](COc2ccc(-c3ccn[nH]3)nc2)C1 [Example 1-24] | 0.04 | 0.035 |
| COc1cn[nH]c1-c1ccc(OCc2cccc(S(C)(=O)=O)c2)cn1 [Example 24-8] | 2.6 | 0.44 |
| O=C(c1ccccc1)N1CCC(CCOc2ccc(-c3ccn[nH]3)nc2)CC1 [Example 4-3] | 0.21 | 0.27 |
| CC(=O)N(C)CC12CC(COc3ccc(-c4ccn[nH]4)nc3)(C1)C2 [Example 22-1, N-Methyl-N-{[3-({[6-(1H-pyrazol-5-yl)pyridin-3-yl]oxy}methyl)bicyclo[1.1.1]pentan-1-yl]methyl}acetamide] | 0.019 | 0.39 |
| FC(F)c1cc(COc2ccc(-c3ccn[nH]3)nc2)ccn1 [Example 25-6] | 0.062 | 0.095 |
| CN(C(=O)N1CCC(COc2ccc(-c3ccn[nH]3)nc2)CC1)C1CC1 [Example 8-2, N-Cyclopropyl-N-methyl-4-({[6-(1H-pyrazol-5-yl)pyridin-3-yl]oxy}methyl)piperidin-1-carboxamide] | 0.09 | 0.93 |
| CC(=O)NCCC(=O)N1CCC[C@@H](COc2ccc(-c3ccn[nH]3)nc2)C1 [Example 1-36] | 0.68 | 0.64 |
| O=C(CCO)N1CCC(COc2ccc(-c3ccn[nH]3)nc2)CC1 [Example 2-9] | 0.44 | 3.8 |
| CC(C)OC(=O)NCCS(=O)(=O)N1CCC[C@H](COc2ccc(-c3ccn[nH]3)nc2)C1 [Example 1-21] | 0.018 | 0.032 |
| Nc1cccc(COc2ccc(-c3ccn[nH]3)nc2)c1 [Example 19-1, 3-({[6-(1H-Pyrazol-5-yl)pyridin-3-yl]oxy}methyl)aniline] | 0.046 | 0.62 |
| CC(C)OC(=O)N1CCC[C@@H](COc2ccc(-c3ccn[nH]3)nc2)C1 [Example 1-9] | 0.13 | 0.21 |
| CC(=O)N1CCC(COc2ccc(-c3ccns3)nc2)CC1 [Example 42-1, 1-(4-{[6-(1,2-Thiazol-5-yl)pyridin-3-yl]oxymethyl}piperidin-1-yl)ethanone] | 0.044 | 0.11 |
| COCc1cn[nH]c1-c1ccc(OCc2cccc(S(C)(=O)=O)c2)cn1 [Example 49-2, 2-[4-(Methoxymethyl)-1H-pyrazol-5-yl]-5-[(3-methylsulfonylphenyl)methoxy]pyridine] | 28 | 13 |
| CS(=O)(=O)N1CCC[C@@H](COc2ccc(-c3cn[nH]c3)nc2)C1 [Example 46-4] | 1.4 | 0.039 |
| CC(=O)N(C)[C@H]1C[C@H](COc2ccc(-c3ccn[nH]3)nc2)C1 [Example 17-1-2, N-Methyl-N-[trans-3-({[6-(1H-pyrazol-5-yl)pyridin-3-yl]oxy}methyl)cyclobutyl]acetamide] | 0.019 | 2.7 |
| CC(C)(O)CC(=O)N1CCC[C@@H](COc2ccc(-c3ccn[nH]3)nc2)C1 [Example 3-35] | 0.79 | 1.3 |
